Experimental data taken from ChEMBL document CHEMBL4184334, “From Cancer to Pain Target by Automated Selectivity Inversion of a Clinical Candidate” (J Med Chem, 2018).
Activity calls are given as the source filed them. The calls are words filed in the database; no cut-off is given here.

Tests used:
[1] = target: BDNF/NT-3 growth factors receptor (Homo sapiens) (UniProt Q16620); experiment: Inhibition of DNA-tagged human partial length TrkB expressed in mammalian expression system at 100 nM by qPCR method
[2] = target: NT-3 growth factor receptor (Homo sapiens) (UniProt Q16288); experiment: Inhibition of DNA-tagged human partial length TrkC expressed in mammalian expression system at 100 nM by qPCR method
[3] = target: Mast/stem cell growth factor receptor Kit (Homo sapiens) (UniProt P10721); experiment: Inhibition of DNA-tagged human partial length KIT expressed in bacterial expression system at 100 nM by qPCR method
[4] = target: Platelet-derived growth factor receptor beta (Homo sapiens) (UniProt P09619); experiment: Inhibition of DNA-tagged human partial length PDGFRB expressed in mammalian expression system at 100 nM by qPCR method
[5] = target: Proto-oncogene tyrosine-protein kinase receptor Ret (Homo sapiens) (UniProt P07949); experiment: Inhibition of DNA-tagged human partial length RET expressed in bacterial expression system at 100 nM by qPCR method
[6] = target: High affinity nerve growth factor receptor (Homo sapiens) (UniProt P04629); experiment: Inhibition of DNA-tagged human partial length TrkA expressed in mammalian expression system assessed as remaining activity at 100 nM by qPCR method
[7] = target: Tyrosine-protein kinase JAK2 (Homo sapiens, UniProt O60674); experiment: Inhibition of DNA-tagged human partial length JAK2 JH1 domain-catalytic expressed in mammalian expression system at 100 nM by qPCR method; details: 0.1 µM
[8] = target: T1, Tyrosine-protein kinase JAK3 (Homo sapiens) (UniProt P52333); experiment: Inhibition of DNA-tagged human partial length JAK3 JH1 domain-catalytic expressed in mammalian expression system at 100 nM by qPCR method
T1 sequence (whole entry): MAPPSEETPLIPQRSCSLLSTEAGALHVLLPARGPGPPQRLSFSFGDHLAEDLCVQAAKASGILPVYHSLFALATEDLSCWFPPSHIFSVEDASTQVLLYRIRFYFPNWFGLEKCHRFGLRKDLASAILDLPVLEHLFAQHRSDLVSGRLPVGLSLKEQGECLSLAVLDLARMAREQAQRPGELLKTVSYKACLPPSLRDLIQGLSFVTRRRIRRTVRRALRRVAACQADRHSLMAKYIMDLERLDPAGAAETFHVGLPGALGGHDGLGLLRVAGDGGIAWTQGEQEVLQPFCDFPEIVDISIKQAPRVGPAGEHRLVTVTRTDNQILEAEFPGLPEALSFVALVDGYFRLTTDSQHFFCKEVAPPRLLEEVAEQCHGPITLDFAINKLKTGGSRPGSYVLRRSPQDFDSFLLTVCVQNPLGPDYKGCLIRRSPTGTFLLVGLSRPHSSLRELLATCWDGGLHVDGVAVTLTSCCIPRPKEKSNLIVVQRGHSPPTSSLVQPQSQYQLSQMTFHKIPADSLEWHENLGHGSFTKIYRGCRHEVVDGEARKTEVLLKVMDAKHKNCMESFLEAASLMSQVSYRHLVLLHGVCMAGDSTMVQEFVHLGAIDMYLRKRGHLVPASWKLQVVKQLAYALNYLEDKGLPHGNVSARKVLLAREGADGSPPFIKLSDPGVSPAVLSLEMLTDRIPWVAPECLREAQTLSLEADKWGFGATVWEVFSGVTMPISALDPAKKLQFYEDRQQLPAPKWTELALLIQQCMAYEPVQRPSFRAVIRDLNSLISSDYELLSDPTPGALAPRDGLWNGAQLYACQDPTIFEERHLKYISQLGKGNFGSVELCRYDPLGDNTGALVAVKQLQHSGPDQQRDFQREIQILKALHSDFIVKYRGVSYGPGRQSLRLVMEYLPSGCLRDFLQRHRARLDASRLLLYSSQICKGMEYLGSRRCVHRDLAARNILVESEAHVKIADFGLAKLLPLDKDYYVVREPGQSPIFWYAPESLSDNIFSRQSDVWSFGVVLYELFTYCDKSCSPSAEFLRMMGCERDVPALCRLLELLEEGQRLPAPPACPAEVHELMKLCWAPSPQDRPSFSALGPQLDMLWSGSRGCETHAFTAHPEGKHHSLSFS

[9] = target: Tyrosine-protein kinase ABL1 (Homo sapiens, UniProt P00519, T315I); experiment: Inhibition of DNA-tagged human phosphorylated partial length ABL1 T315I mutant expressed in mammalian expression system at 100 nM by qPCR method; details: 0.1 µM
[10] = target: Tyrosine-protein kinase ABL1 (Homo sapiens, UniProt P00519); experiment: Inhibition of DNA-tagged human nonphosphorylated partial length ABL1 expressed in mammalian expression system at 100 nM by qPCR method; details: 0.1 µM
[11] = species: Homo sapiens; experiment: Selectivity ratio of Kd for DNA-tagged human partial length AURKA to Kd for DNA-tagged human partial length TrkA
[12] = target: T2, Aurora kinase A (Homo sapiens, UniProt O14965); experiment: Inhibition of DNA-tagged human partial length AURKA expressed in mammalian expression system at 100 nM by qPCR method; details: 0.1 µM
T2 sequence (O14965 whole entry): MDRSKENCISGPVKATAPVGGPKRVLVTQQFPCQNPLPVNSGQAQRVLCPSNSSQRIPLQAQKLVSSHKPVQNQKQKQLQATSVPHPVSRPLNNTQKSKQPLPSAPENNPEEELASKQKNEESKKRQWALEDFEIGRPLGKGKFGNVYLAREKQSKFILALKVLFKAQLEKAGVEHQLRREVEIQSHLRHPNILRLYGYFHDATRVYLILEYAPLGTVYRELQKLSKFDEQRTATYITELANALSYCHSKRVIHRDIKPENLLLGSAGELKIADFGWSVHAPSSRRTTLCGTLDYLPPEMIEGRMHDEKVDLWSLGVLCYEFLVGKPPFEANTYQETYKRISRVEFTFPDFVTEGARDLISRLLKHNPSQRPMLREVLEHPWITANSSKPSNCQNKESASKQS

Proto-oncogene tyrosine-protein kinase receptor Ret (Homo sapiens), sequence (P07949 whole entry): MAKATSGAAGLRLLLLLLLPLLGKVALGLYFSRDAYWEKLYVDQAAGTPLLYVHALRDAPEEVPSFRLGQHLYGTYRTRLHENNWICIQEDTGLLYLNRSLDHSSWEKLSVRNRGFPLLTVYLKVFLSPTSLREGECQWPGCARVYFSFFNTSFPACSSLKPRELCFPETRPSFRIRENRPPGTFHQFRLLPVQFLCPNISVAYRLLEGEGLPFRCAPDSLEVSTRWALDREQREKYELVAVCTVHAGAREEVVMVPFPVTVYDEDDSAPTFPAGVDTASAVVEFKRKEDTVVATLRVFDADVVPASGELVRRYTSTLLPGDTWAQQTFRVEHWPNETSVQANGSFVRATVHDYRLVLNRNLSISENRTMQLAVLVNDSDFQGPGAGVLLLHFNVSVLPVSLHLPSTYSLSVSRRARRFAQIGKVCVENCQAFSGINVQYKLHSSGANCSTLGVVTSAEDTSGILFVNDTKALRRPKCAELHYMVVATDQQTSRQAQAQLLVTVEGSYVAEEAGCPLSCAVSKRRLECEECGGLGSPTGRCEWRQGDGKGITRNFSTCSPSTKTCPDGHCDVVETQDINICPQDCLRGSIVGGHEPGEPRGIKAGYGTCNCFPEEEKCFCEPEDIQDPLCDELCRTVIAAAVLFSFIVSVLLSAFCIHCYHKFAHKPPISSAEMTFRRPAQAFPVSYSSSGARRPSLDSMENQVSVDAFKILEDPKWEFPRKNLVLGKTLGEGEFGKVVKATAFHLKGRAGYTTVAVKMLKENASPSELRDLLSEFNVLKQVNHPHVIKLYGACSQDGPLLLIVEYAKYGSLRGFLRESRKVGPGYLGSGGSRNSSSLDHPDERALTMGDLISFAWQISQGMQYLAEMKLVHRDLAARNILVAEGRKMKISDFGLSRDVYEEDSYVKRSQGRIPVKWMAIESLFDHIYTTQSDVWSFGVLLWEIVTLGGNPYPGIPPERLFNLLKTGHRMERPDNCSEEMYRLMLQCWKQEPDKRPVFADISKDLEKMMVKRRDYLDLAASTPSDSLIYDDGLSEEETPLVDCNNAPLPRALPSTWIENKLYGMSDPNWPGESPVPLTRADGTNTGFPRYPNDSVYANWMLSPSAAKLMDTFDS
NT-3 growth factor receptor (Homo sapiens), sequence (Q16288 32-839 limits assumed): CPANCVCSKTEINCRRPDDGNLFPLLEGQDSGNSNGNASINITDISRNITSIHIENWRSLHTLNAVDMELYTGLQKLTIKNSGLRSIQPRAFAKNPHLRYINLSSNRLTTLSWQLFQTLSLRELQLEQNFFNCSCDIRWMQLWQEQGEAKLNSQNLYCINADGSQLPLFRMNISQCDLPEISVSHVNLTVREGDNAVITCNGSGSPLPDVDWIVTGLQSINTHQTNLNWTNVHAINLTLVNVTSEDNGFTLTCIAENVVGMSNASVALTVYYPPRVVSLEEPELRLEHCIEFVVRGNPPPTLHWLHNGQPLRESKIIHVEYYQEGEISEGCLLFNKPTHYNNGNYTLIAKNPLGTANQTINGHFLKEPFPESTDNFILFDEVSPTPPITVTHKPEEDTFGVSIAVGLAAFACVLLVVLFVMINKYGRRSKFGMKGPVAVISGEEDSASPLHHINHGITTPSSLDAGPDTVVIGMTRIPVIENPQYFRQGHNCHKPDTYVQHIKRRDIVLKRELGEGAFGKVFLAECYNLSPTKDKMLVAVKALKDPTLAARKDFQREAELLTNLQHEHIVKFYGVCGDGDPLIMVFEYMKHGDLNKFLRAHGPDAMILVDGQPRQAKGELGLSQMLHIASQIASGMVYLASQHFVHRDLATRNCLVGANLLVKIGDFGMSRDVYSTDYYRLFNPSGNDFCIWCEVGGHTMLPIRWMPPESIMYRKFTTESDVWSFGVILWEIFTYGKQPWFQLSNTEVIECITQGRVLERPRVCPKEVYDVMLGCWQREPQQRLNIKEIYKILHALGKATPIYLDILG
BDNF/NT-3 growth factors receptor (Homo sapiens), sequence (Q16620 32-822 limits assumed): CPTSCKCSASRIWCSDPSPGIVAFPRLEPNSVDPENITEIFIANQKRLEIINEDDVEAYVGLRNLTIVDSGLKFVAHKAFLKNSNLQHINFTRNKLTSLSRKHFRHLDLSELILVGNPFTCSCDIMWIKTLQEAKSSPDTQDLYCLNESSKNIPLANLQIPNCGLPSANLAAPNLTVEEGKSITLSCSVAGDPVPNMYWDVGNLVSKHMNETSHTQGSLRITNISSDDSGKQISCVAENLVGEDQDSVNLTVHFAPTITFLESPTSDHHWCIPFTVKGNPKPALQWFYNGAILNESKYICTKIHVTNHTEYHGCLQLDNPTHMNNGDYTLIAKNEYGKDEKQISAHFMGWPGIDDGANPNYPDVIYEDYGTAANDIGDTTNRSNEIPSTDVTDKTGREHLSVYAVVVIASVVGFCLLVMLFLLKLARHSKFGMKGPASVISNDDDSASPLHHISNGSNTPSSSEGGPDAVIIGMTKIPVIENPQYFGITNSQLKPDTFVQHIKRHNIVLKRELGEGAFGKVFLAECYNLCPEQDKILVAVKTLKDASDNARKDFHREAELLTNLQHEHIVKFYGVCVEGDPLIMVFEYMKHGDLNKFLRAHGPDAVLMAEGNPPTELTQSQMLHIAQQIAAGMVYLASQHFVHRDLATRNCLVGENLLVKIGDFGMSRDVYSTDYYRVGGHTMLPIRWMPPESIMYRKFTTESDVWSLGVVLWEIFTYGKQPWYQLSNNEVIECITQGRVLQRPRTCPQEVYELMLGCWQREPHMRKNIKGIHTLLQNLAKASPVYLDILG
Platelet-derived growth factor receptor beta (Homo sapiens), sequence (P09619 whole entry): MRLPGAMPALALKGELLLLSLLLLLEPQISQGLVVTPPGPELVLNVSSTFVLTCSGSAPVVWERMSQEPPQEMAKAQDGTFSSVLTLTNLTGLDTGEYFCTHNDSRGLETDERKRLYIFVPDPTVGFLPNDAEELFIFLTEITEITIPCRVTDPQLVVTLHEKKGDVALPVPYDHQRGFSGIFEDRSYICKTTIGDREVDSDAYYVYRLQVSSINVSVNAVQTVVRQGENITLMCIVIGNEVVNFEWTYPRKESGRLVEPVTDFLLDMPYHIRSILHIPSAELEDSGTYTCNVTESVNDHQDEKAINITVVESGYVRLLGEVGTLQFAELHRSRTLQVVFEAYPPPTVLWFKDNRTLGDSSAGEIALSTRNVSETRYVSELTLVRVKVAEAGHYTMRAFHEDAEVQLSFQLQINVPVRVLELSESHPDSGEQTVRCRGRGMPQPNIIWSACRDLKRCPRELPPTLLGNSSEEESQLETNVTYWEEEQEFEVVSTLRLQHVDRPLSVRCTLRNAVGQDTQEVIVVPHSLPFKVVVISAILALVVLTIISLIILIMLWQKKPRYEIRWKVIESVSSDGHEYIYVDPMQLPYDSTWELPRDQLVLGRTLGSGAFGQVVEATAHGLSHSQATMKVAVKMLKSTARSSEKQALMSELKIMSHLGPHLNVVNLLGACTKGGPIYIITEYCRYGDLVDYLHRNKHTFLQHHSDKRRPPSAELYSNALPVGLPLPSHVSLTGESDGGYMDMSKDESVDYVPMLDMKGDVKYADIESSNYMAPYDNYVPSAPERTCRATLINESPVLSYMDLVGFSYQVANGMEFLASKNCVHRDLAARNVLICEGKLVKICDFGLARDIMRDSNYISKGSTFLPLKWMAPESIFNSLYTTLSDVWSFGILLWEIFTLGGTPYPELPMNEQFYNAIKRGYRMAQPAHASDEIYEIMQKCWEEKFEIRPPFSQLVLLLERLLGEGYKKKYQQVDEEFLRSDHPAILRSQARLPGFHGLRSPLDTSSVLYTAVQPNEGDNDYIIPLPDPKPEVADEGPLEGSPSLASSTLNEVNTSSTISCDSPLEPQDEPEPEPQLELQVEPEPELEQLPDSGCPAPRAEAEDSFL
High affinity nerve growth factor receptor (Homo sapiens), sequence (P04629 33-796 limits assumed): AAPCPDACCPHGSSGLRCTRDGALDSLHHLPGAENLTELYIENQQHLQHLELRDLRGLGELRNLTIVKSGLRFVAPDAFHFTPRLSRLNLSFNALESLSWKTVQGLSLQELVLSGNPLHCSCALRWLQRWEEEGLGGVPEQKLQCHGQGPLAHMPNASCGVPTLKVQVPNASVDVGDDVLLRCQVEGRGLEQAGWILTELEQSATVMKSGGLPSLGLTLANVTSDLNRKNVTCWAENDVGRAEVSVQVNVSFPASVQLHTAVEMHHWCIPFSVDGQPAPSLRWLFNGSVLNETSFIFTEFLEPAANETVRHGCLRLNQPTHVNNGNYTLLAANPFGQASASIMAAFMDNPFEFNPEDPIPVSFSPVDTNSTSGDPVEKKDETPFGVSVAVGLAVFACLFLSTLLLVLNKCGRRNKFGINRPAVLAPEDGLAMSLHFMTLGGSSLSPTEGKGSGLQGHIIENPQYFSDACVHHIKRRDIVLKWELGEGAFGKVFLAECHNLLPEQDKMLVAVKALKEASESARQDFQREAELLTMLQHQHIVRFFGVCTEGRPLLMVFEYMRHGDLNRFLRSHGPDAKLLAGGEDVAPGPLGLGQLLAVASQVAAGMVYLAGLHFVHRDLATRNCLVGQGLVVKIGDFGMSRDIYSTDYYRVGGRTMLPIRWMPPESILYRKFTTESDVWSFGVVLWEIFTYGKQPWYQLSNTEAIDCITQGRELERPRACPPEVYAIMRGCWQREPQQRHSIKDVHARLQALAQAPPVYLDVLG

inhibition [1]	inhibition [2]	inhibition [4]	inhibition [5]	Structure (SMILES)	other results
Active	Active	Active	Active	CN1CCN(c2cc(Nc3cc(-c4cccc(F)c4)[nH]n3)nc(Sc3ccccc3)n2)CC1	inhibition [3]: Active; Activity [6]: < 1%; inhibition (INH) [7]: Not Active; inhibition [8]: inactive; inhibition (INH) [9]: Not Active; inhibition (INH) [10]: Not Active; Selectivity ratio [11]: 1000
			Active	Cc1cc(Nc2cc(N3CCN(C)CC3)nc(Sc3ccc(NC(=O)C4CC4)cc3)n2)n[nH]1	
				CN1CCN(c2cc(Nc3cc(C(C)(C)C)[nH]n3)nc(Sc3ccccc3)n2)CC1	inhibition (INH) [12]: Not Active
inactive	inactive	inactive		Cc1ccc(CSc2nc(Nc3cc(C)[nH]n3)cc(N3CCN(C)CC3)n2)cc1	
